Laboratory results published in patent US11713344B2 (DONG-A ST CO., LTD., priority 2017, dated 2023).

Experiments:
Human GLP-1 receptors = Human GLP-1 receptors (Homo sapiens, UniProt P43220); experiment: GLP-1 receptor activation assay (CRE-luciferase reporter, CHO-K1)
Human glucagon receptors = Human glucagon receptors (Homo sapiens, UniProt P47871); experiment: Glucagon receptor activation assay (CRE-luciferase reporter, CHO-K1)
Chain of Human glucagon receptors (P47871 26-477): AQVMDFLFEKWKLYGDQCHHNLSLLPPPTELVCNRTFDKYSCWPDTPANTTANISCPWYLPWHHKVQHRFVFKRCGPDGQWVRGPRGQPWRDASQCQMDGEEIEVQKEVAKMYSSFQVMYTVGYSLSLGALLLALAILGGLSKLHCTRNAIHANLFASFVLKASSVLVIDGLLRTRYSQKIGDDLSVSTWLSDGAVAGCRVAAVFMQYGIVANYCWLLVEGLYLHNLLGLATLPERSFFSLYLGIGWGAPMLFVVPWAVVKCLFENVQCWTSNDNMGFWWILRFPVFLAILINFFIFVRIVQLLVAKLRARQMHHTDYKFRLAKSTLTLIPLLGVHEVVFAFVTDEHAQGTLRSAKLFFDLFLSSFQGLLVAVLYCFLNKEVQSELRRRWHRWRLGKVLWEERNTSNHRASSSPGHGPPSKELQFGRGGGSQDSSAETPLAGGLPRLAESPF
Description: Then, the resulting increased luciferase activity was evaluated as a measurement of the effect on each receptor activation.
After 3 hours of transfection, medium was exchanged to Alpha Minimal Essential Medium (α-MEM) comprising 10% fetal bovine serum (FBS). Next day, the medium was exchanged to α-MEM comprising the analog of the present invention and 0.1% bovine serum albumin (BSA). After 6 hours, dual luciferase assay reagent was added in the same amount as the medium in which the cells were submerged, and firefly luciferase and Renilla luciferase activities were continuously measured. Firefly luciferase activity values were corrected against Renilla luciferase activity to yield transfection efficiency.

Chain of Human GLP-1 receptors (P43220 24-463): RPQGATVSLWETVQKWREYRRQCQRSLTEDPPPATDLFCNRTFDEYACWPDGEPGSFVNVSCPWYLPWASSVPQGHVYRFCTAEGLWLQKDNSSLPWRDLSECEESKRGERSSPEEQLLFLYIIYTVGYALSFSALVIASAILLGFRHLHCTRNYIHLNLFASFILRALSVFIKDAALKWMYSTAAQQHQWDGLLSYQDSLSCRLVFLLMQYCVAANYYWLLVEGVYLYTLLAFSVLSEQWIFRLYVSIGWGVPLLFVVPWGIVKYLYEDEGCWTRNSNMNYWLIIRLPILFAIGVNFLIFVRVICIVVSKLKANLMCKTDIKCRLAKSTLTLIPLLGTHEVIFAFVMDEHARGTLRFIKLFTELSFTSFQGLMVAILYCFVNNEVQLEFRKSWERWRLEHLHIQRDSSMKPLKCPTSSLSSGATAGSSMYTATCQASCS

Structure (SMILES) | EC50 (Human GLP-1 receptors) | EC50 (Human glucagon receptors)
CCCCCCCCCCCCCCCCCCCC(=O)N[C@@H](CCC(=O)NCCOCCOCC(=O)NCCOCCOCC(=O)NCCCC[C@H](NC(=O)[C@H](CC(=O)O)NC(=O)[C@H](CO)NC(=O)[C@@H](NC(=O)[C@H](Cc1ccccc1)NC(=O)[C@@H](NC(=O)CNC(=O)[C@H](CCC(N)=O)NC(=O)C(C)(C)NC(=O)[C@@H](N)Cc1c[nH]cn1)[C@@H](C)O)[C@@H](C)O)C(=O)N[C@@H](CO)C(=O)N[C@@H](CCCCN)C(=O)N[C@@H](Cc1ccc(O)cc1)C(=O)N[C@@H](CC(C)C)C(=O)N[C@@H](CC(=O)O)C(=O)NC(C)(C)C(=O)N[C@@H](CCCNC(=N)N)C(=O)N[C@@H](CCCNC(=N)N)C(=O)N[C@@H](C)C(=O)N[C@@H](CCC(N)=O)C(=O)N[C@@H](CC(=O)O)C(=O)N[C@@H](Cc1ccccc1)C(=O)N[C@H](C(=O)N[C@@H](CCC(N)=O)C(=O)N[C@@H](Cc1c[nH]c2ccccc12)C(=O)N[C@@H](CC(C)C)C(=O)N[C@@H](CCSC)C(=O)N[C@@H](CC(N)=O)C(=O)N[C@H](C(=O)N[C@@H](CCCCN)C(=O)O)[C@@H](C)O)C(C)C)C(=O)O [Compound 8] | 0.01 to 0.1 nM | 0.01 to 0.1 nM
CCCCCCCCCCCCCCCCCC(=O)N[C@@H](CCC(=O)N[C@@H](CCC(=O)NCCOCCOCC(=O)NCCOCCOCC(=O)NCCCC[C@H](NC(=O)[C@H](CC(=O)O)NC(=O)[C@H](CO)NC(=O)[C@@H](NC(=O)[C@H](Cc1ccccc1)NC(=O)[C@@H](NC(=O)CNC(=O)[C@H](CCC(N)=O)NC(=O)C(C)(C)NC(=O)[C@@H](N)Cc1c[nH]cn1)[C@@H](C)O)[C@@H](C)O)C(=O)N[C@@H](CO)C(=O)N[C@@H](CCCCN)C(=O)N[C@@H](Cc1ccc(O)cc1)C(=O)N[C@@H](CC(C)C)C(=O)N[C@@H](CC(=O)O)C(=O)NC(C)(C)C(=O)N[C@@H](CCCNC(=N)N)C(=O)N[C@@H](CCCNC(=N)N)C(=O)N[C@@H](C)C(=O)N[C@@H](CCC(N)=O)C(=O)N[C@@H](CC(=O)O)C(=O)N[C@@H](Cc1ccccc1)C(=O)N[C@H](C(=O)N[C@@H](CCC(N)=O)C(=O)N[C@@H](Cc1c[nH]c2ccccc12)C(=O)N[C@@H](CC(C)C)C(=O)N[C@@H](CCSC)C(=O)N[C@@H](CC(N)=O)C(=O)N[C@H](C(=O)N[C@@H](CCCCN)C(=O)O)[C@@H](C)O)C(C)C)C(=O)O)C(=O)O [Compound 9] | < 0.01 nM | < 0.01 nM
CCCCCCCCCCCCCCCCCC(=O)N[C@@H](CCC(=O)NCCOCCOCC(=O)NCCOCCOCC(=O)NCCOCCOCC(=O)NCCCC[C@H](NC(=O)[C@H](CC(=O)O)NC(=O)[C@H](CO)NC(=O)[C@@H](NC(=O)[C@H](Cc1ccccc1)NC(=O)[C@@H](NC(=O)CNC(=O)[C@H](CCC(N)=O)NC(=O)C(C)(C)NC(=O)[C@@H](N)Cc1c[nH]cn1)[C@@H](C)O)[C@@H](C)O)C(=O)N[C@@H](CO)C(=O)N[C@@H](CCCCN)C(=O)N[C@@H](Cc1ccc(O)cc1)C(=O)N[C@@H](CC(C)C)C(=O)N[C@@H](CC(=O)O)C(=O)NC(C)(C)C(=O)N[C@@H](CCCNC(=N)N)C(=O)N[C@@H](CCCNC(=N)N)C(=O)N[C@@H](C)C(=O)N[C@@H](CCC(N)=O)C(=O)N[C@@H](CC(=O)O)C(=O)N[C@@H](Cc1ccccc1)C(=O)N[C@H](C(=O)N[C@@H](CCC(N)=O)C(=O)N[C@@H](Cc1c[nH]c2ccccc12)C(=O)N[C@@H](CC(C)C)C(=O)N[C@@H](CCSC)C(=O)N[C@@H](CC(N)=O)C(=O)N[C@H](C(=O)N[C@@H](CCCCN)C(=O)O)[C@@H](C)O)C(C)C)C(=O)O [Compound 10] | < 0.01 nM | < 0.01 nM
CCCCCCCCCCCCCCCCCC(=O)N[C@@H](CCC(=O)NCC(=O)N[C@@H](CO)C(=O)NCC(=O)N[C@@H](CO)C(=O)NCC(=O)NCC(=O)NCCCC[C@H](NC(=O)[C@H](CC(=O)O)NC(=O)[C@H](CO)NC(=O)[C@@H](NC(=O)[C@H](Cc1ccccc1)NC(=O)[C@@H](NC(=O)CNC(=O)[C@H](CCC(N)=O)NC(=O)C(C)(C)NC(=O)[C@@H](N)Cc1c[nH]cn1)[C@@H](C)O)[C@@H](C)O)C(=O)N[C@@H](CO)C(=O)N[C@@H](CCCCN)C(=O)N[C@@H](Cc1ccc(O)cc1)C(=O)N[C@@H](CC(C)C)C(=O)N[C@@H](CC(=O)O)C(=O)NC(C)(C)C(=O)N[C@@H](CCCNC(=N)N)C(=O)N[C@@H](CCCNC(=N)N)C(=O)N[C@@H](C)C(=O)N[C@@H](CCC(N)=O)C(=O)N[C@@H](CC(=O)O)C(=O)N[C@@H](Cc1ccccc1)C(=O)N[C@H](C(=O)N[C@@H](CCC(N)=O)C(=O)N[C@@H](Cc1c[nH]c2ccccc12)C(=O)N[C@@H](CC(C)C)C(=O)N[C@@H](CCSC)C(=O)N[C@@H](CC(N)=O)C(=O)N[C@H](C(=O)N[C@@H](CCCCN)C(=O)O)[C@@H](C)O)C(C)C)C(=O)O [Compound 11] | < 0.01 nM | 0.01 to 0.1 nM
CCCCCCCCCCCCCCCCCC(=O)N[C@@H](CCC(=O)NCCOCCOCC(=O)NCCOCCOCC(=O)NCCCC[C@H](NC(=O)[C@H](CC(=O)O)NC(=O)[C@H](CO)NC(=O)[C@@H](NC(=O)[C@H](Cc1ccccc1)NC(=O)[C@@H](NC(=O)CNC(=O)[C@H](CCC(N)=O)NC(=O)C(C)(C)NC(=O)[C@@H](N)Cc1c[nH]cn1)[C@@H](C)O)[C@@H](C)O)C(=O)N[C@@H](CO)C(=O)N[C@@H](CCCCN)C(=O)N[C@@H](Cc1ccc(O)cc1)C(=O)N[C@@H](CC(C)C)C(=O)N[C@@H](CC(=O)O)C(=O)NC(C)(C)C(=O)N[C@@H](CCCNC(=N)N)C(=O)N[C@@H](CCCNC(=N)N)C(=O)N[C@@H](C)C(=O)N[C@@H](CCC(N)=O)C(=O)N[C@@H](CC(=O)O)C(=O)N[C@@H](Cc1ccccc1)C(=O)N[C@H](C(=O)N[C@@H](CCC(N)=O)C(=O)N[C@@H](Cc1c[nH]c2ccccc12)C(=O)N[C@@H](CC(C)C)C(=O)N[C@@H](CC(C)C)C(=O)N[C@@H](CCCNC(=N)N)C(=O)N[C@@H](C)C(=O)N[C@@H](CCCCN)C(=O)O)C(C)C)C(=O)O [Compound 12] | < 0.01 nM | < 0.01 nM
CSCC[C@H](NC(=O)[C@H](CC(C)C)NC(=O)[C@H](Cc1c[nH]c2ccccc12)NC(=O)[C@H](CCC(N)=O)NC(=O)[C@@H](NC(=O)[C@H](Cc1ccccc1)NC(=O)[C@H](CC(=O)O)NC(=O)[C@H](CCC(N)=O)NC(=O)[C@H](C)NC(=O)[C@H](CCCNC(=N)N)NC(=O)[C@H](CCCNC(=N)N)NC(=O)C(C)(C)NC(=O)[C@H](CC(=O)O)NC(=O)[C@H](CC(C)C)NC(=O)[C@H](Cc1ccc(O)cc1)NC(=O)[C@H](CCCCN)NC(=O)[C@H](CO)NC(=O)[C@H](CCCCNC(=O)COCCOCCNC(=O)COCCOCCNC(=O)CC[C@H](NC(=O)CCCCCCCCCCCCCCCCC(N)=O)C(=O)O)NC(=O)[C@H](CC(=O)O)NC(=O)[C@H](CO)NC(=O)[C@@H](NC(=O)[C@H](Cc1ccccc1)NC(=O)[C@@H](NC(=O)CNC(=O)[C@H](CCC(N)=O)NC(=O)C(C)(C)NC(=O)[C@@H](N)Cc1c[nH]cn1)[C@@H](C)O)[C@@H](C)O)C(C)C)C(=O)N[C@@H](CC(N)=O)C(=O)N[C@H](C(=O)N[C@@H](CCCCN)C(=O)O)[C@@H](C)O [Compound 13] | 0.01 to 0.1 nM | 0.01 to 0.1 nM
CCCCCCCCCCCCCCCCCC(=O)N[C@@H](CCC(=O)NCCOCCOCC(=O)NCCOCCOCC(=O)NCCCC[C@H](NC(=O)[C@H](CC(=O)O)NC(=O)[C@H](CO)NC(=O)[C@@H](NC(=O)[C@H](Cc1ccccc1)NC(=O)[C@@H](NC(=O)CNC(=O)[C@H](CCC(N)=O)NC(=O)C(C)(C)NC(=O)[C@@H](N)Cc1c[nH]cn1)[C@@H](C)O)[C@@H](C)O)C(=O)N[C@@H](CO)C(=O)N[C@@H](CCCCN)C(=O)N[C@@H](Cc1ccc(O)cc1)C(=O)N[C@@H](CC(C)C)C(=O)N[C@@H](CC(=O)O)C(=O)N[C@H]1CCC(=O)NCCCC[C@@H](C(=O)N[C@@H](CC(=O)O)C(=O)N[C@@H](Cc2ccccc2)C(=O)N[C@H](C(=O)N[C@@H](CCC(N)=O)C(=O)N[C@@H](Cc2c[nH]c3ccccc23)C(=O)N[C@@H](CC(C)C)C(=O)N[C@@H](CCSC)C(=O)N[C@@H](CC(N)=O)C(=O)N[C@H](C(=O)N[C@@H](CCCCN)C(=O)O)[C@@H](C)O)C(C)C)NC(=O)[C@H](C)NC(=O)[C@H](CCCNC(=N)N)NC(=O)[C@H](CCCNC(=N)N)NC1=O)C(=O)O [Compound 14, H-HAibQGTFTSDZSKYLDERRAKDFVQWLMNTK-OH] | < 0.01 nM | < 0.01 nM
CCCCCCCCCCCCCCCCCC(=O)N[C@@H](CCC(=O)NCCOCCOCC(=O)NCCOCCOCC(=O)NCCCC[C@H](NC(=O)[C@H](CC(=O)O)NC(=O)[C@H](CC(C)C)NC(=O)[C@H](Cc1ccc(O)cc1)NC(=O)[C@H](CCCCN)NC(=O)[C@H](CO)NC(=O)[C@H](Cc1ccc(O)cc1)NC(=O)[C@H](CC(=O)O)NC(=O)[C@H](CO)NC(=O)[C@@H](NC(=O)[C@H](Cc1ccccc1)NC(=O)[C@@H](NC(=O)CNC(=O)[C@H](CCC(N)=O)NC(=O)C(C)(C)NC(=O)[C@@H](N)Cc1c[nH]cn1)[C@@H](C)O)[C@@H](C)O)C(=O)N[C@@H](CCCNC(=N)N)C(=O)N[C@@H](CCCNC(=N)N)C(=O)N[C@@H](C)C(=O)N[C@@H](CCC(N)=O)C(=O)N[C@@H](CC(=O)O)C(=O)N[C@@H](Cc1ccccc1)C(=O)N[C@H](C(=O)N[C@@H](CCC(N)=O)C(=O)N[C@@H](Cc1c[nH]c2ccccc12)C(=O)N[C@@H](CC(C)C)C(=O)N[C@@H](CCSC)C(=O)N[C@@H](CC(N)=O)C(=O)N[C@H](C(=O)N[C@@H](CCCCN)C(=O)O)[C@@H](C)O)C(C)C)C(=O)O [Compound 15, H-HAibQGTFTSDYSKYLDZRRAQDFVQWLMNTK-OH] | < 0.01 nM | < 0.01 nM
CCCCCCCCCCCCCCCCCC(=O)N[C@@H](CCC(=O)NCCOCCOCC(=O)NCCOCCOCC(=O)NCCCC[C@H](NC(=O)[C@H](C)NC(=O)[C@H](CCCNC(=N)N)NC(=O)[C@H](CCCNC(=N)N)NC(=O)C(C)(C)NC(=O)[C@H](CC(=O)O)NC(=O)[C@H](CC(C)C)NC(=O)[C@H](Cc1ccc(O)cc1)NC(=O)[C@H](CCCCN)NC(=O)[C@H](CO)NC(=O)[C@H](Cc1ccc(O)cc1)NC(=O)[C@H](CC(=O)O)NC(=O)[C@H](CO)NC(=O)[C@@H](NC(=O)[C@H](Cc1ccccc1)NC(=O)[C@@H](NC(=O)CNC(=O)[C@H](CCC(N)=O)NC(=O)C(C)(C)NC(=O)[C@@H](N)Cc1c[nH]cn1)[C@@H](C)O)[C@@H](C)O)C(=O)N[C@@H](CC(=O)O)C(=O)N[C@@H](Cc1ccccc1)C(=O)N[C@H](C(=O)N[C@@H](CCC(N)=O)C(=O)N[C@@H](Cc1c[nH]c2ccccc12)C(=O)N[C@@H](CC(C)C)C(=O)N[C@@H](CCSC)C(=O)N[C@@H](CC(N)=O)C(=O)N[C@H](C(=O)N[C@@H](CCCCN)C(=O)O)[C@@H](C)O)C(C)C)C(=O)O [Compound 16] | < 0.01 nM | < 0.01 nM
